The record followed here is patent US20150073159A1, “Solid State Forms Of Cabazitaxel And Processes For Preparation Thereof” (PLUS CHEMICALS SA, priority 2011, published 2015).

Series [1] can be described thus: Hygroscopicity and stability test (exposure to controlled relative humidity; water content by Karl-Fischer, form by PXRD). The class given is physicochemical. As to conditions: for % water content: Karl-Fischer coulometric titration; for Conversion to other forms of Cabazitaxel (in words) / Hygroscopicity (in words): normal atmospheric humidity, 60%, 80% and 100% RH. As for the experimental part:
(§1) Powder X-ray Diffraction was performed on an X-Ray powder diffractometer: PanAlytical X'pert Pro; CuKα radiation (λ=1.5418 Å); X'Celerator detector with active length 2.122 degrees 2-theta; laboratory temperature 22-25° C.; zero background sample holders. Prior to analysis, the samples were gently ground using a mortar and pestle to obtain a fine powder. The ground sample was adjusted into a cavity of the sample holder and the surface of the sample was smoothed using a cover glass.
A silicon powder internal standard was used to calibrate the peak positions and to eliminate an effect of the sample preparation. […] The internal standard powder can be mixed with a sample The PXRD diffractogram is then acquired and the current position of the aforementioned internal standard diffraction peak is determined. The difference between the current position of the diffraction and its nominal value of 28.44 degrees 2-theta is calculated. The current positions of all relevant sample peaks are then corrected using the above difference to obtain the true positions of the sample diffractions. The confidence interval for the peak positions was determined to be ±0.1 degrees 2-theta.
Scan range: 3-40 degrees 2-theta; Scan mode: continuous; Step size: 0.0167 degrees; Time per step: 42 s; Sample spin: 16 rpm; Sample holder: zero background silicon plate.
About 100 mg of a sample was placed to a cell with controlled relative humidity. The samples were exposed to 60%, 80% and 100% relative humidity, at a temperature of about room temperature, for a period of about two days. XRPD analysis and water content by Karl-Fischer coulometric titration were carried out before and after the exposure to the defined relative humidity.
Water was determined by KF Oven method (832 KF Thermoprep connected to 831 KF Coulometer). Water from the sample (50 mg of cabazitaxel) was released by nitrogen stream at 130° C. Extraction time was 10 minutes.

Series [2] can be described thus: Polymorphic stability on storage (conversion measured by PXRD). The class given is physicochemical. Here is the method: As used herein, and unless indicated otherwise, the term “polymorphic stability” in relation to the crystalline forms of Cabazitaxel means that there is less than 20%, 10%, 5%, 1%, 0.5% or 0.1% conversion of crystalline Cabazitaxel to any other solid state form of Cabazitaxel under the specified conditions, as measured by PXRD. In some embodiments, the conversion is 0.5%-20%, 0.5%-10% or 0.5%-5% or 0.5%-1% or 0.1%-1%, or 0.1%-0.5%.
as §1

Setting [3] is: 60% RH, about room temperature, about two days.
The mark [4] stands for this setting: 80% RH, about room temperature, about two days.
[5] abbreviates: 100% RH, about room temperature, about two days.

As for `CO[C@H]1C(=O)[C@]2(C)[C@@H](OC)C[C@H]3OC[C@@]3(OC(C)=O)[C@H]2[C@H](OC(=O)c2ccccc2)[C@]2(O)C[C@H](OC(=O)[C@H](O)[C@@H](NC(=O)OC(C)(C)C)c3ccccc3)C(C)=C1C2(C)C` [Form I, Cabazitaxel], the “Form (crystalline structure determined by PXRD)” value in series [1] (setting [3]), in series [1] (setting [4]), in series [1] (setting [5]) and in series [1] (Atmospheric RH) was “Form I” throughout. Further, the “% water content” value in series [1] (setting [3]) amounted to 0.13%; in series [1] (setting [4]), 0.14%; in series [1] (setting [5]) it was 0.14%; in series [1] (Atmospheric RH) it was 0.05%. Besides, the “Conversion to other forms of Cabazitaxel (in words)” value (shortened to “Conversion to other forms”) in series [1] (about room temperature) is reported as “does not convert to any other forms of Cabazitaxel”. Besides, in series [1] (about room temperature), the “Hygroscopicity (in words)” value is listed as “low-hygroscopicity form”.
Regarding `CO[C@H]1C(=O)[C@]2(C)[C@@H](OC)C[C@H]3OC[C@@]3(OC(C)=O)[C@H]2[C@H](OC(=O)c2ccccc2)[C@]2(O)C[C@H](OC(=O)[C@H](O)[C@@H](NC(=O)OC(C)(C)C)c3ccccc3)C(C)=C1C2(C)C` [Form II, Cabazitaxel], the “Form (crystalline structure determined by PXRD)” value in series [1] (setting [3]), in series [1] (setting [4]), in series [1] (setting [5]) and in series [1] (Atmospheric RH) was “Form II” in each case. The “% water content” value in series [1] (setting [3]) was determined as 0.07%; in series [1] (setting [4]), 0.09%; in series [1] (setting [5]), 0.11%; in series [1] (Atmospheric RH), 0.02%. In series [1] (about room temperature), the “Conversion to other forms” value is given as “does not convert to any other forms of Cabazitaxel”. Also, the “Hygroscopicity (in words)” value in series [1] (about room temperature) was “low-hygroscopicity form”.
With `CO[C@H]1C(=O)[C@]2(C)[C@@H](OC)C[C@H]3OC[C@@]3(OC(C)=O)[C@H]2[C@H](OC(=O)c2ccccc2)[C@]2(O)C[C@H](OC(=O)[C@H](O)[C@@H](NC(=O)OC(C)(C)C)c3ccccc3)C(C)=C1C2(C)C` [Form III, Cabazitaxel], the “Form (crystalline structure determined by PXRD)” value in series [1] (setting [3]), in series [1] (setting [4]), in series [1] (setting [5]) and in series [1] (Atmospheric RH) was “Form III” in each case. Moreover, the “% water content” value in series [1] (setting [3]) is given as 0.14%; in series [1] (setting [4]), 0.23%; in series [1] (setting [5]) it was 0.19%; in series [1] (Atmospheric RH), 0.05%. Also, the “Conversion to other forms” value in series [1] (about room temperature) is recorded as “does not convert to any other solid state forms of Cabazitaxel”. In series [1] (about room temperature), the “Hygroscopicity (in words)” value is listed as “low-hygroscopicity form”. For the same molecule, the “Period of polymorphic stability” value in series [2] (about 25° C. and 60% relative humidity) is “at least 6 months”; in series [2] (about 40° C. and 75% RH) it was “at least 6 months”.
Regarding `CO[C@H]1C(=O)[C@]2(C)[C@@H](OC)C[C@H]3OC[C@@]3(OC(C)=O)[C@H]2[C@H](OC(=O)c2ccccc2)[C@]2(O)C[C@H](OC(=O)[C@H](O)[C@@H](NC(=O)OC(C)(C)C)c3ccccc3)C(C)=C1C2(C)C` [Form IV, Cabazitaxel], the “Form (crystalline structure determined by PXRD)” value in series [1] (setting [3]), in series [1] (setting [4]), in series [1] (setting [5]) and in series [1] (Atmospheric RH) was “Form IV” in each case. In addition, the “% water content” value in series [1] (setting [3]) is 0.07%; in series [1] (setting [4]), 0.09%; in series [1] (setting [5]), 0.09%; in series [1] (Atmospheric RH) it was 0.01%. The “Conversion to other forms” value in series [1] (about room temperature) is “does not convert to any other forms of Cabazitaxel”. In series [1] (about room temperature), the “Hygroscopicity (in words)” value was “low-hygroscopicity form”.
For `CO[C@H]1C(=O)[C@]2(C)[C@@H](OC)C[C@H]3OC[C@@]3(OC(C)=O)[C@H]2[C@H](OC(=O)c2ccccc2)[C@]2(O)C[C@H](OC(=O)[C@H](O)[C@@H](NC(=O)OC(C)(C)C)c3ccccc3)C(C)=C1C2(C)C` [Form V, Cabazitaxel], the “Form (crystalline structure determined by PXRD)” value in series [1] (setting [3]), in series [1] (setting [4]), in series [1] (setting [5]) and in series [1] (Atmospheric RH) was “Form V” throughout. Further, the “% water content” value was found to be 0.21% in series [1] (setting [3]), 0.30% in series [1] (setting [4]), 0.68% in series [1] (setting [5]) and 0.08% in series [1] (Atmospheric RH). For the same molecule, in series [1] (about room temperature), the “Conversion to other forms” value is reported as “does not convert to any other forms of Cabazitaxel”. For the same molecule, in series [1] (about room temperature), the “Hygroscopicity (in words)” value is recorded as “low—hygroscopicity form”.
